One assay deals with T1, pY641-STAT6 in PBMC (Homo sapiens, UniProt P42226).
T1 construct: Cryopreserved Peripheral Blood Mononuclear Cells (PBMC) are from AllCells; host or cells: cryopreserved PBMC
T1 sequence (P42226 1-847): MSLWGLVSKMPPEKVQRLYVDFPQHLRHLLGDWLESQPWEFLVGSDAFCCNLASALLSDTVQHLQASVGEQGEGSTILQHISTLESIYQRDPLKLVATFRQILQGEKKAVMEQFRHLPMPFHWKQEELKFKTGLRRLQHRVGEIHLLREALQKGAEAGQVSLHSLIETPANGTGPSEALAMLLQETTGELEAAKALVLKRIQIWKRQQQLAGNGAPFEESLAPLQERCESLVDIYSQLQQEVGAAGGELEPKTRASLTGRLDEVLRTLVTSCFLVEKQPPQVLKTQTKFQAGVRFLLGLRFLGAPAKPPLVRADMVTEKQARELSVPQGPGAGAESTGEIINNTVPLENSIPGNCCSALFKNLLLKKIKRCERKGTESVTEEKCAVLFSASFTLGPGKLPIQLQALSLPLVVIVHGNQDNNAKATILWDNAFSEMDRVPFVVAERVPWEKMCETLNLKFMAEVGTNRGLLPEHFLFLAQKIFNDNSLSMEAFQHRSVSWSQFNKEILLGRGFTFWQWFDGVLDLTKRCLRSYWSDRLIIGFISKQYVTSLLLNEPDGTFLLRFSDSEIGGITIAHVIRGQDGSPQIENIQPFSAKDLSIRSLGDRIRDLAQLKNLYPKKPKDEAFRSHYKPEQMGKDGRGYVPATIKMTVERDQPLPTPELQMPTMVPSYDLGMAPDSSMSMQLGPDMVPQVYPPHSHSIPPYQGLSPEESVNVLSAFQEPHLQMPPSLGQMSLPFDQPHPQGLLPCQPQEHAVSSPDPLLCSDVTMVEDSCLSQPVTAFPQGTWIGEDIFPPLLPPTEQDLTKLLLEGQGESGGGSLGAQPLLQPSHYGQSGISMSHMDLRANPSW
The assay is described as follows: MSD-pSTAT-PBMC Assay (pSTAT6, IL-4 stimulated). The class given is cell-based. The following applies: compound 3 hrs, then 1 ng/mL IL-4 for 10 min, Table 115. Put shortly: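 PBMC (human, cryopreserved, overnight recovery) + cpd 3 hrs → IL-6 10 ng/mL (STAT3) or IL-4 1 ng/mL (STAT6) ×10 min → lysis with protease/phosphatase inhibitors → MSD capture/phospho detection. IC50, variable slope, DMSO-normalized.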

Another assay addresses T2, pY705-STAT3 in PBMC (Homo sapiens, UniProt P40763).
T2 construct: Cryopreserved Peripheral Blood Mononuclear Cells (PBMC) are from AllCells; host or cells: cryopreserved PBMC
Description: MSD-pSTAT-PBMC Assay (pSTAT3, IL-6 stimulated). The format is cell-based. The following applies: PBMC, compound 3 hrs, then 10 ng/mL IL-6 for 10 min; Table 115; read-out: STAT3. Put shortly: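 pY705-STAT3 was detected electrochemiluminescently on total-STAT3 capture plates, using lysates of human PBMCs given compound for 3 h and then IL-6 (10 ng/mL, 10 min). Values were background-subtracted against unstimulated wells and set relative to DMSO. IC50 was fitted with variable slope.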

Drawing on patent US20250215029A1 (Recludix Pharma, Inc., priority 2022, published 2025), this text covers IC50 for 12 compounds.

pIC50: −log10 of the molar value. Where two headings read alike, the source gives them in different places.

T2 sequence (P40763 whole entry): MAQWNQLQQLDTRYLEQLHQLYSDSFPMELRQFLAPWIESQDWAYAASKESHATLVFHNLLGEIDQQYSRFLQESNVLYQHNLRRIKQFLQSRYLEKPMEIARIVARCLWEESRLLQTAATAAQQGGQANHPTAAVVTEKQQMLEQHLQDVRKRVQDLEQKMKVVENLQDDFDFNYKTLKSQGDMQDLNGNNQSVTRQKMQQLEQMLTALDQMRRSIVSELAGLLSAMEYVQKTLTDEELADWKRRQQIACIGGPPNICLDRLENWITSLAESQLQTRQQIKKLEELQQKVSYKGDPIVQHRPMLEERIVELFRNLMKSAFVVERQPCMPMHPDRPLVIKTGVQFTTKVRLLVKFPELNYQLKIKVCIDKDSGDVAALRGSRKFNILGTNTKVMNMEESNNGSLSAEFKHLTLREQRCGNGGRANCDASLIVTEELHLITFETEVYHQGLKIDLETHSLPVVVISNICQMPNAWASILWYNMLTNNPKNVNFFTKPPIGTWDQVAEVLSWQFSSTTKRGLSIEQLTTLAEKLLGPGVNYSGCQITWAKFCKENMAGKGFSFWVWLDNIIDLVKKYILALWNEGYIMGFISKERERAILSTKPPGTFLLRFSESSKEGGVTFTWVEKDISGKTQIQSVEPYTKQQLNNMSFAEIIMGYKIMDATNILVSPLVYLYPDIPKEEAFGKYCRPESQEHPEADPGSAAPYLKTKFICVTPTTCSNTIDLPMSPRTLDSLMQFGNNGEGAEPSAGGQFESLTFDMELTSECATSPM

In the case of `CCCOC(=O)[C@H](C)NP(=O)(Cc1ccc2sc(C(=O)N[C@H]3CCCC[C@H]4CC[C@@H](C(=O)N5CCC(c6cccnc6)C5)N4C3=O)cc2c1)Oc1ccccc1` (stereo partly drawn) [Compound 253, propyl (((2-(((3S,6S,10aS)-5-oxo-3-(3-(pyridin-3-yl)pyrrolidine-1-carbonyl)decahydropyrrolo[1,2-a]azocin-6-yl)carbamoyl)benzo [b]thiophen-5-yl)methyl)(phenoxy)phosphoryl)-L-alaninate], the pIC50 is 6.00 to 7.00 on pY641-STAT6 in PBMC (STAT6, PBMC) and < 5.52 on pY705-STAT3 in PBMC.
For the compound `CCCOC(=O)[C@H](C)NP(=O)(Cc1ccc2sc(C(=O)N[C@H]3CCC[C@H]4CC[C@@H](C(=O)N5CC(c6cnccc6OC)C5)N4C3=O)cc2c1)Oc1ccccc1` (stereo partly drawn) [Compound 255, propyl (((2-(((3S,6S,9aS)-3-(3-(4-methoxypyridin-3-yl)azetidine-1-carbonyl)-5-oxooctahydro-1H-pyrrolo[1,2-a]azepin-6-yl)carbamoyl)benzo [b]thiophen-5-yl)methyl)(phenoxy)phosphoryl)-L-alaninate], the pIC50 against pY641-STAT6 in PBMC (STAT6, PBMC) was < 5.52; on pY705-STAT3 in PBMC it was > 7.00.
Take `CCCOC(=O)[C@H](C)NP(=O)(Oc1ccccc1)C(F)c1ccc2sc(C(=O)N[C@H]3CCC[C@H]4CC[C@@H](C(=O)N5CC(c6cnccc6OC)C5)N4C3=O)cc2c1` (stereo partly drawn) [Compound 262, propyl ((fluoro(2-(((3S,6S,9aS)-3-(3-(4-methoxypyridin-3-yl)azetidine-1-carbonyl)-5-oxooctahydro-1H-pyrrolo[1,2-a]azepin-6-yl)carbamoyl)benzo [b]thiophen-5-yl)methyl)(phenoxy)phosphoryl)-L-alaninate]: the pIC50 against pY641-STAT6 in PBMC (STAT6, PBMC) is < 5.52; on pY705-STAT3 in PBMC, > 7.00.
As to `CCCOC(=O)[C@H](C)NP(=O)(Oc1ccccc1)C(F)c1ccc2sc(C(=O)N[C@H]3C[C@H](C)C[C@H]4CC[C@@H](C(=O)N5CC(c6cnccc6F)C5)N4C3=O)cc2c1` (stereo partly drawn) [Compound 263, propyl ((fluoro(2-(((3S,6S,8S,9aR)-3-(3-(4-fluoropyridin-3-yl)azetidine-1-carbonyl)-8-methyl-5-oxooctahydro-1H-pyrrolo[1,2-a]azepin-6-yl)carbamoyl)benzo [b]thiophen-5-yl)methyl)(phenoxy)phosphoryl)-L-alaninate], the pIC50 was < 5.52 against pY641-STAT6 in PBMC (STAT6, PBMC) and > 7.00 on pY705-STAT3 in PBMC.
As to `CCCOC(=O)[C@H](C)NP(=O)(Cc1ccc2sc(C(=O)N[C@H]3CCCC[C@H]4CC[C@@H](C(=O)NCc5cnc6[nH]cnc6c5)N4C3=O)cc2c1)Oc1ccccc1` (stereo partly drawn) [Compound 280, propyl (((2-(((3S,6S,10aS)-3-(((3H-imidazo[4,5-b]pyridin-6-yl)methyl)carbamoyl)-5-oxodecahydropyrrolo [1,2-a]azocin-6-yl)carbamoyl)benzo [b]thiophen-5-yl)methyl)(phenoxy)phosphoryl)-L-alaninate], the pIC50 on pY641-STAT6 in PBMC (STAT6, PBMC) is < 5.52; on pY705-STAT3 in PBMC, > 7.00.
On to `CCCOC(=O)[C@H](C)NP(=O)(Cc1ccc2sc(C(=O)N[C@H]3C[C@@H](C)C[C@H]4CC[C@@H](C(=O)N5CC(c6cnccc6C)C5)N4C3=O)cc2c1)Oc1ccccc1` (stereo partly drawn) [Compound 284, propyl (((2-(((3S,6S,8R,9aR)-8-methyl-3-(3-(4-methylpyridin-3-yl)azetidine-1-carbonyl)-5-oxooctahydro-1H-pyrrolo[1,2-a]azepin-6-yl)carbamoyl)benzo [b]thiophen-5-yl)methyl)(phenoxy)phosphoryl)-L-alaninate], for which the pIC50 on pY641-STAT6 in PBMC (STAT6, PBMC) was < 5.52; at pY705-STAT3 in PBMC it was > 7.00.
Turning to `CCCOC(=O)[C@H](C)NP(=O)(Oc1ccccc1)C(F)c1ccc2sc(C(=O)N[C@H]3C[C@@H](C)C[C@H]4CC[C@@H](C(=O)N5CC(c6cnccc6F)C5)N4C3=O)cc2c1` (stereo partly drawn) [Compound 292, propyl ((fluoro(2-(((3S,6S,8R,9aR)-3-(3-(4-fluoropyridin-3-yl)azetidine-1-carbonyl)-8-methyl-5-oxooctahydro-1H-pyrrolo[1,2-a]azepin-6-yl)carbamoyl)benzo [b]thiophen-5-yl)methyl)(phenoxy)phosphoryl)-L-alaninate], the pIC50 at pY641-STAT6 in PBMC (STAT6, PBMC) is < 5.52; at pY705-STAT3 in PBMC, > 7.00.
As to `CCCOC(=O)[C@H](C)NP(=O)(Cc1ccc2sc(C(=O)N[C@H]3CC4(CC[C@H]5CC[C@@H](C(=O)N6CC(c7cccnc7)C6)N5C3=O)CC4)cc2c1)Oc1ccccc1` (stereo partly drawn) [Compound 302, propyl (((2-(((3′S,6′S,10a′S)-5′-oxo-3′-(3-(pyridin-3-yl)azetidine-1-carbonyl)octahydro-5′H-spiro[cyclopropane-1,8′-pyrrolo[1,2-a]azocin]-6′-yl)carbamoyl)benzo [b]thiophen-5-yl)methyl)(phenoxy)phosphoryl)-L-alaninate], the pIC50 on pY641-STAT6 in PBMC (STAT6, PBMC) is 5.52 to 6.00; at pY705-STAT3 in PBMC it was > 7.00.
The like results for `CCCOC(=O)[C@H](C)NP(=O)(Cc1ccc2sc(C(=O)N[C@H]3CCC[C@H]4CC[C@@H](C(=O)N5CC(c6cnccc6F)C5)N4C3=O)cc2c1)Oc1ccccc1` (stereo partly drawn) [Compound 304, propyl (((2-(((3S,6S,9aS)-3-(3-(4-fluoropyridin-3-yl)azetidine-1-carbonyl)-5-oxooctahydro-1H-pyrrolo[1,2-a]azepin-6-yl)carbamoyl)benzo [b]thiophen-5-yl)methyl)(phenoxy)phosphoryl)-L-alaninate] were, in that order, < 5.52 and > 7.00.
`CCCOC(=O)[C@H](C)NP(=O)(Oc1ccccc1)C(F)c1ccc2sc(C(=O)N[C@H]3CCCC[C@H]4CC[C@@H](C(=O)N5CCC(c6cccnc6)C5)N4C3=O)cc2c1` (stereo partly drawn) [Compound 320, propyl ((fluoro(2-(((3S,6S,10aS)-5-oxo-3-(3-(pyridin-3-yl)pyrrolidine-1-carbonyl)decahydropyrrolo[1,2-a]azocin-6-yl)carbamoyl)benzo [b]thiophen-5-yl)methyl)(phenoxy)phosphoryl)-L-alaninate]: the pIC50 against pY641-STAT6 in PBMC (STAT6, PBMC) is 6.00 to 7.00; at pY705-STAT3 in PBMC, > 7.00.
As for `CC(C)(C)C(=O)SCCOP(=O)(OCCSC(=O)C(C)(C)C)C(F)(F)c1ccc2sc(C(=O)N[C@H]3CCC[C@H]4CC[C@@H](C(=O)N5CC(c6cnccc6F)C5)N4C3=O)cc2c1` [Compound 324, S,S′-((((difluoro(2-(((3S,6S,9aS)-3-(3-(4-fluoropyridin-3-yl)azetidine-1-carbonyl)-5-oxooctahydro-1H-pyrrolo[1,2-a]azepin-6-yl)carbamoyl)benzo [b]thiophen-5-yl)methyl)phosphoryl)bis(oxy))bis(ethane-2,1-diyl)) bis(2,2-dimethyl-propanethioate)], the pIC50 on pY641-STAT6 in PBMC (PBMC, read-out: STAT6) was < 5.52; on pY705-STAT3 in PBMC, > 7.00.
Consider `CCCOC(=O)[C@H](C)NP(=O)(Oc1ccccc1)[C@@H](F)c1ccc2sc(C(=O)N[C@H]3CCCC[C@H]4CC[C@@H](C(=O)N5C[C@@H](c6ccccc6)[C@H](C#N)C56CC6)N4C3=O)cc2c1` (stereo partly drawn) [Compound 380, propyl (((R)-(2-(((3S,6S,10aS)-3-((6R,7S)-7-cyano-6-phenyl-4-azaspiro[2.4]heptane-4-carbonyl)-5-oxodecahydropyrrolo [1,2-a]azocin-6-yl)carbamoyl)benzo [b]thiophen-5-yl)fluoromethyl) (phenoxy)phosphoryl)-L-alaninate], for which the pIC50 at pY641-STAT6 in PBMC (STAT6, PBMC) was > 7.00; at pY705-STAT3 in PBMC, < 5.52.
